11 compounds from ChEMBL document CHEMBL1201862, “PubChem BioAssay data set” (2004) can be followed below.

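Where inhibition never reached the appropriate level, the endpoint shown equals the highest concentration tested. Otherwise, values were interpolated linearly from a five-concentration, 48-hour dose response in 96-well plates. Here, GI50 denotes the concentration required for 50% inhibition of growth.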 The source made the active and inactive calls. Cut-off read from the data, not from the text of the source: active = GI50 up to about 1.1 µM and inactive = higher.

Among the test systems are UACC-257; HT-29; OVCAR-8; 786-0; Hs-578T; SK-MEL-2; UACC-62; HCT-116; A498; CAKI-1; SNB-75; KM12; OVCAR-4; PC-3; NCI/ADR-RES; ACHN; RPMI-8226; UO-31; SR.
Common to all, as to test: growth of human tumour cells (NCI), 48 h

Turning to `C#CCn1c(=O)c(I)cn(/C(=C/C(=O)OCC)C(=O)OCC)c1=O`, the GI50 is 3.06 µM (inactive) in the assay on UACC-257; 12.6 µM (inactive) in the assay with HT-29; 3.56 µM (inactive) with OVCAR-8; 1.63 µM (inactive) with 786-0; 15 µM (inactive) in the assay on Hs-578T; 15.5 µM (inactive) in the assay with SK-MEL-2. Moreover, the GI50 in the assay with UACC-62 was 5.42 µM (inactive); with HCT-116 it was 1.85 µM (inactive); in the assay with A498, 19.1 µM (inactive); with CAKI-1, 1.86 µM (inactive); with SNB-75, 17.2 µM (inactive); in the assay on KM12 it was 18 µM (inactive). The GI50 was 8.22 µM (inactive) with OVCAR-4; 5.06 µM (inactive) in the assay on PC-3; 18.9 µM (inactive) in the assay on NCI/ADR-RES; 1.67 µM (inactive) in the assay with ACHN; 0.746 µM (active) in the assay with RPMI-8226; 1.53 µM (inactive) in the assay on UO-31.

In the case of `CCOC(=O)C1(C(=O)OCC)[C@H](c2ccccc2)C2=NO[C@@H]3CCC[C@H]1[C@H]23`, the GI50 was 31.6 µM (inactive) in the assay with UACC-257; 35.8 µM (inactive) in the assay on HT-29; 75.3 µM (inactive) in the assay with OVCAR-8; 82.2 µM (inactive) in the assay with 786-0; > 100 µM (inactive) in the assay with Hs-578T; 40.9 µM (inactive) in the assay on SK-MEL-2. The GI50 in the assay on UACC-62 is 15.2 µM (inactive); with HCT-116, 54.1 µM (inactive); in the assay on CAKI-1, 48.3 µM (inactive); with SNB-75, 30.1 µM (inactive); in the assay on SR, 30.8 µM (inactive); in the assay on KM12, 34.8 µM (inactive). The GI50 was 37.9 µM (inactive) in the assay on OVCAR-4; 49.3 µM (inactive) in the assay with PC-3; 39.4 µM (inactive) in the assay with NCI/ADR-RES; 84.3 µM (inactive) with ACHN; 14.6 µM (inactive) in the assay with RPMI-8226; 57.4 µM (inactive) in the assay with UO-31.

As to `CN(CCN1C(=O)c2cccc3cccc(c23)C1=O)CCN1C(=O)c2cccc3cccc(c23)C1=O`, the GI50 in the assay with UACC-257 was 60.1 µM (inactive); in the assay with HT-29, > 100 µM (inactive); with OVCAR-8, 5.55 µM (inactive); in the assay on 786-0, 9.02 µM (inactive); in the assay on Hs-578T, 12 µM (inactive); in the assay on SK-MEL-2 it was 45.7 µM (inactive). For the same compound, the GI50 is 30 µM (inactive) in the assay on UACC-62; 5.98 µM (inactive) with HCT-116; > 100 µM (inactive) in the assay on CAKI-1; 19.2 µM (inactive) with SNB-75; 3.37 µM (inactive) with SR; > 100 µM (inactive) in the assay with KM12. In addition, the GI50 in the assay with OVCAR-4 is > 100 µM (inactive); in the assay on PC-3, > 100 µM (inactive); in the assay with NCI/ADR-RES it was 13.5 µM (inactive); in the assay with ACHN, 7.69 µM (inactive); with UO-31, 5.81 µM (inactive).

Take `Cc1ccccc1N/C(N)=N/C#N`: the GI50 with UACC-257, in the assay with HT-29, in the assay on OVCAR-8, in the assay with 786-0, in the assay on Hs-578T and in the assay with SK-MEL-2 was > 100 µM (inactive) in each case. The GI50 with UACC-62, with HCT-116, in the assay with CAKI-1, in the assay with SNB-75, with SR and with OVCAR-4 was > 100 µM (inactive) in each case. For the same compound, the GI50 in the assay with PC-3, in the assay with NCI/ADR-RES, in the assay on ACHN, in the assay on RPMI-8226 and with UO-31 was > 100 µM (inactive) throughout.

As to `CCNC(=O)Cc1nc2c(O)ncnc2n1C1OC(CO)C(O)C1O` (stereo not drawn), the GI50 in the assay on UACC-257, with HT-29, with OVCAR-8, in the assay on 786-0, in the assay with Hs-578T and with SK-MEL-2 was > 100 µM (inactive) each time. Besides, the GI50 in the assay with UACC-62, with HCT-116, in the assay with A498, in the assay on CAKI-1, in the assay on SNB-75 and in the assay with KM12 was > 100 µM (inactive) each time. For the same compound, the GI50 in the assay on OVCAR-4, with PC-3, in the assay with NCI/ADR-RES, with ACHN, in the assay with RPMI-8226 and with UO-31 was > 100 µM (inactive) throughout.

Turning to `CN(C)c1ccc(-c2c(C#N)c(O)n(NS(=O)(=O)c3ccccc3)c(=O)c2C#N)cc1`, the GI50 in the assay on UACC-257, in the assay on HT-29, with OVCAR-8, in the assay on 786-0, in the assay on Hs-578T and in the assay on SK-MEL-2 was > 100 µM (inactive) throughout. The GI50 with UACC-62, with HCT-116, in the assay with A498, with CAKI-1, in the assay with SNB-75 and with KM12 was > 100 µM (inactive) in each case. The GI50 in the assay with OVCAR-4, in the assay on PC-3, in the assay with NCI/ADR-RES, in the assay with ACHN and in the assay with RPMI-8226 was > 100 µM (inactive) in each case.

`COc1ccc(/N=[N+](\[O-])c2ccc(OC)cc2)cc1`: the GI50 with UACC-257, with HT-29, in the assay with OVCAR-8, in the assay on 786-0, in the assay on Hs-578T and in the assay with SK-MEL-2 was > 100 µM (inactive) in each case. Besides, the GI50 in the assay with UACC-62, with HCT-116, in the assay with A498, in the assay with CAKI-1, with SNB-75 and with KM12 was > 100 µM (inactive) throughout. In addition, the GI50 with OVCAR-4, with PC-3, with NCI/ADR-RES, in the assay with ACHN, with RPMI-8226 and in the assay on UO-31 was > 100 µM (inactive) in each case.

Take `CCOC(=O)C1(C/C=C/CBr)Cc2ccccc2C1=O` (stereo not drawn): the GI50 in the assay on UACC-257 is 8.17 µM (inactive); in the assay on HT-29 it was 2.79 µM (inactive); in the assay with OVCAR-8, 2.39 µM (inactive); with 786-0 it was 3.85 µM (inactive); in the assay on Hs-578T it was 5.53 µM (inactive); with SK-MEL-2, 2.25 µM (inactive). In addition, the GI50 is 2.14 µM (inactive) in the assay on UACC-62; 3.71 µM (inactive) with HCT-116; 17.9 µM (inactive) in the assay with A498; 2.42 µM (inactive) in the assay with CAKI-1; 5.86 µM (inactive) with SNB-75; 3.07 µM (inactive) in the assay with KM12. The GI50 with OVCAR-4 was 2.03 µM (inactive); in the assay with PC-3, 4.13 µM (inactive); with NCI/ADR-RES it was 1.98 µM (inactive); in the assay on ACHN it was 2.43 µM (inactive); in the assay on RPMI-8226, 2.02 µM (inactive); in the assay with UO-31 it was 1.96 µM (inactive).

Take `O=C(O)CCC1(CCC(=O)O)CCCCCCCCC(CCC(=O)O)(CCC(=O)O)C(=O)C1=O`: the GI50 in the assay on UACC-257, with HT-29, in the assay with OVCAR-8, in the assay with 786-0, in the assay with Hs-578T and in the assay with SK-MEL-2 was > 100 µM (inactive) each time. Besides, the GI50 in the assay with UACC-62 is > 100 µM (inactive); with HCT-116 it was > 100 µM (inactive); in the assay with CAKI-1, > 100 µM (inactive); with SNB-75, > 100 µM (inactive); in the assay on SR, 84.9 µM (inactive); in the assay with KM12, > 100 µM (inactive). Besides, the GI50 in the assay on OVCAR-4 was > 100 µM (inactive); in the assay on PC-3, > 100 µM (inactive); in the assay on NCI/ADR-RES, > 100 µM (inactive); with ACHN it was > 100 µM (inactive); in the assay with RPMI-8226, < 0.01 µM (active).

With `COc1ccc2nc3cc(Cl)ccc3c(NCCCNCc3cc(OC)c(OC)c(OC)c3)c2c1`, the GI50 in the assay with UACC-257 was 1.94 µM (inactive); in the assay with HT-29, 1.01 µM (active); in the assay with OVCAR-8 it was 1.77 µM (inactive); in the assay on 786-0, 1.4 µM (inactive); in the assay on Hs-578T it was 2.95 µM (inactive); in the assay with SK-MEL-2, 1.91 µM (inactive). The GI50 with UACC-62 was 1.91 µM (inactive); in the assay on HCT-116 it was 1.24 µM (inactive); with CAKI-1 it was 1.71 µM (inactive); with SR, 1.2 µM (inactive); in the assay on KM12, 1.64 µM (inactive); in the assay on OVCAR-4, 1.78 µM (inactive). Also, the GI50 was 1.4 µM (inactive) with PC-3; 2.08 µM (inactive) in the assay with NCI/ADR-RES; 1.62 µM (inactive) in the assay on ACHN; 1.53 µM (inactive) in the assay with RPMI-8226; 1.65 µM (inactive) in the assay with UO-31.

`CC(=O)Oc1c2oc3ccc(Cl)cc3c(=O)c2c(O)c2ccsc12`: the GI50 is > 100 µM (inactive) in the assay with UACC-257; > 100 µM (inactive) in the assay on HT-29; > 100 µM (inactive) in the assay with OVCAR-8; > 100 µM (inactive) with 786-0; 33.3 µM (inactive) in the assay with Hs-578T; > 100 µM (inactive) with SK-MEL-2. Besides, the GI50 with UACC-62 was > 100 µM (inactive); with HCT-116, > 100 µM (inactive); in the assay on A498, > 100 µM (inactive); in the assay with CAKI-1, > 100 µM (inactive); in the assay on SNB-75, 52.4 µM (inactive); in the assay on KM12, > 100 µM (inactive). For the same compound, the GI50 in the assay on OVCAR-4, with PC-3, in the assay with NCI/ADR-RES, in the assay with ACHN, with RPMI-8226 and in the assay with UO-31 was > 100 µM (inactive) in each case.
